Measured values from patent publication US20060286046A1, “Skin care compositions” (priority 2005, published 2006).

Columns and labels:
Format in all cases: cell-based, human
JEG-3 cells [1] = experiment: Viability experiments (Alamar Blue and CFDA-AM) after simulated solar radiation (SSR) exposure; details: SSR 16 hours
Description: (§1) JEG-3 cells, a human placental choriocarcinoma cell line of epithelial origin, were grown and maintained at 37° C., 5% CO2 in 75 mm^2 culture flasks until a confluent monolayer was formed. Cells were then removed, washed, re-suspended, and counted on a hemocytometer, allowing for the concentration to be adjusted to 30,000 cells/mL. Aliquots of 0.2 mL of the cell solution were added into each well of a 96 well micro-plate. The cells were incubated at 37° C., 5% CO2 for 48 hours prior to treatment to allow for a confluent monolayer to form. The media was aspirated off and new media with test compounds were added at various concentrations.
(§2) All treatments were made in MEM without FBS. The anti-oxidants were added directly to the medium. The cells were then incubated for 16 hours at 37° C./5% CO2 under simulated solar radiation (SSR) conditions, with a UVB:UVA:visible light ratio of 0.3:5.52:96 mmol m−2 s−1 (total fluence rate: 102 mmol m−2 s−1, which is about 5% of full sunlight).
Two viability experiments were done at the end of the incubation periods (Dark or SSR exposure). Alamar Blue™ is a metabolic (primarily mitochondrial) activity indicator that requires the reducing power of the cell to transform the dye from non-fluorescent to fluorescent. Carboxy-fluorescein diacetate (CFDA-AM) is also a fluorescent dye that requires cellular esterases inside a cell to become fluorescent. The presence of an intact membrane allows the CFDA-AM to concentrate and give a higher reading than may occur outside the cell. Both dyes were combined in phosphate buffered saline with glucose (PBSG) buffer and added to the microplate wells after the media (MEM plus treatment) was removed. […] The plates were incubated for 30 minutes at 37° C./5% CO2 and were then read on a fluorimeter (PerSeptive Biosystems Cytofluor 4000) with excitation and emission, respectively, set at 530 nm and 590 nm for Alamar Blue™ and 485 nm and 530 nm for CFDA-AM. Because of the different excitation and emission wavelengths as well as little cross-reactivity, both dyes can be used simultaneously. The results were calculated as a percentage of the control value.

JEG-3 cells [2] = experiment: Reactive oxygen species detection (H2DCFDA) after SSR exposure; details: SSR 16 hours; FIG. 4
Description: as §1, §2
To determine the levels of ROS generated in the cell system, another fluorescent probe, H2DCFDA, was used. After the 16-hour incubation period under SSR, the media was removed. The probe was added to PBSG in a ratio of 1 μl/ml for a final concentration of 4 nM according to manufacturer instructions. From this mixture, 200 μl/well was added and the plate read on the Cytofluor 4000 at 485 nm excitation and 530 nm emission for 4 hours with readings taken every hour. Results are stated in relative fluorescence units representing the fluorescent product, dichlorofluorescein (DCF). The results were calculated as a percentage of the dark control.

JEG-3 cells [3] = experiment: Metabolic activity (Alamar Blue) after dark exposure; details: incubated in the dark for 24 hours; FIG. 1
Description: Alamar Blue™ is a metabolic activity indicator that requires the reducing power of the cell to transform the dye from the non-fluorescent to the fluorescent. Decreased metabolic activity of a cell is generally associated with cell damage due to a variety of stressors.
as §1, with “The media was aspirated off and new media with test compounds were added at various concentrations.” left out
Two viability experiments were done at the end of the incubation periods (Dark or SSR exposure). […] The presence of an intact membrane allows the CFDA-AM to concentrate and give a higher reading than may occur outside the cell. […] The plates were incubated for 30 minutes at 37° C./5% CO2 and were then read on a fluorimeter (PerSeptive Biosystems Cytofluor 4000) with excitation and emission, respectively, set at 530 nm and 590 nm for Alamar Blue™ and 485 nm and 530 nm for CFDA-AM. […] The results were calculated as a percentage of the control value.

## N[C@@H](CCC(=O)N[C@@H](CS)C(=O)NCC(=O)O)C(=O)O [GSH, glutathione]
JEG-3 cells [1]; 10 mM
  protection of cell viability: complete protection

## O=C1O[C@H]([C@@H](O)CO)C(O)=C1O [ascorbate, ascorbic acid]
JEG-3 cells [1]; 10 mM
  protection of cell viability: only partial protection

## NCCC(=O)N[C@@H](Cc1cnc[nH]1)C(=O)O [carnosine, L-carnosine]
JEG-3 cells [1]; 10 mM
  protection of cell viability: only partial protection
JEG-3 cells [1]; all concentrations
  protection of cell viability: only provided for partial protection of cell viability
JEG-3 cells [2]
  ROS levels (DCF production): did not decrease ROS levels
JEG-3 cells [3]
  metabolic activity compared to control cells: did not differ significantly from control

## CC(=O)N[C@@H](CS)C(=O)O [NAC, N-acetylcysteine]
JEG-3 cells [1]; 10 mM
  protection of cell viability: complete protection
JEG-3 cells [2]
  ROS levels (DCF production): decreased dye levels (DCF production)
  protective effect on ROS compared to other antioxidants: superior to ascorbate but not as great as GSH
JEG-3 cells [3]
  metabolic activity compared to control cells: did not differ significantly from control
